Measured values published in patent US20070010669A1, “Novel class of cytodifferentiating agents and histone deacetylase inhibitors, and methods of use thereof” (priority 1999, published 2007).
Where two headings read alike, the source gives them in different places.

How the values were obtained:
[1] = tested on: Murine erythroleukemia (MEL) cells; test: MEL cell differentiation assay (benzidine assay; cell growth by Coulter Counter); type: cell-based; details: for MEL Diff % B+ / MEL Diff Cells/ml × 10^−5: Table 2; for concentration able to induce MEL cell differentiation: FIGS. 1, 3, 4, 6; for concentration able to induce MEL cell differentiation / MEL Differentiation Opt.: 5-day culture; for MEL Differentiation % B+ / MEL Differentiation Opt.: Table 1; for MEL Differentiation % B+: benzidine-positive cells at Opt. concentration; for MEL Differentiation Opt.: optimal concentration; for MEL Diff Cells/ml × 10^−5: cell growth
Description: (§1) The MEL cell differentiation assay was used to assess the ability of Compound 1 to induce terminal differentiation. MEL cells (logarithmically dividing) were cultured with the indicated concentrations of Compound 1. Following a 5-day culture period, cell growth was determined using a Coulter Counter and differentiation was determined microscopically using the benzidine assay to determine hemoglobin protein accumulation on a per cell basis.
as §1, with “2” for “1”, “2.” for “1.”, “period” for “period, cell growth was determined using a Coulter Counter and”
as §1, with “3” for “1”, “3.” for “1.”, “period” for “period, cell growth was determined using a Coulter Counter and”, “microsdopically” for “microscopically”
as §1, with “4” for “1”, “4.” for “1.”, “period” for “period, cell growth was determined using a Coulter Counter and”
All the compounds which were prepared were tested. […] Table 2 is compiled from experiments similar to the experiments described in Examples 7-10 above.

[2] = target: affinity purified human epitope-tagged (Flag) HDAC1 (Homo sapiens, UniProt Q13547); test: Histone Deacetylase (HDAC) enzymatic activity, [3H]acetyl-labeled histone substrate; type: biochemical; set-up: Flag
Description: (§2) Substrate ([^3H]acetyl-labeled murine erythroleukemia cell-derived histone) was added and the samples were incubated for 20 min at 37° C. in a total volume of 30 μl. The reaction were then stopped and released acetate was extracted and the amount of radioactivity released determined by scintillation counting.
as §2, with “Substrate ([^3H]acetyl-labelled” for “Substrate ([^3H]acetyl-labeled”, “The reactions” for “The reaction”, “and relaesed” for “and released”
as §2, with “([^3H]acetyl-labelled” for “([^3H]acetyl-labeled”, “reactions” for “reaction”
The effect was assayed by incubating the enzyme preparation in the absence of substrate on ice for 20 minutes with the indicated amounts of compound. Substrate([^3H]acetyl-labeled murine erythroleukemia cell-derived histones) was added and the samples were incubated for 20 minutes at 37° C. in a total volume of 30 μl. The reactions were then stopped and released acetate was extracted and the amount of radioactivity released determined by scintillation counting.

[3] = Table 2, unit nM, read-out: HDAC inh ID50
[4] = FIGS. 2, 5, 7, read-out: ID50 of HDAC1 enzymatic activity
[5] = Table 2, unit column μm, read-out: HDAC inh ID50
[6] = Table 2, unit μM, read-out: HDAC inh ID50

Sequence of affinity purified human epitope-tagged (Flag) HDAC1 (Q13547 whole entry): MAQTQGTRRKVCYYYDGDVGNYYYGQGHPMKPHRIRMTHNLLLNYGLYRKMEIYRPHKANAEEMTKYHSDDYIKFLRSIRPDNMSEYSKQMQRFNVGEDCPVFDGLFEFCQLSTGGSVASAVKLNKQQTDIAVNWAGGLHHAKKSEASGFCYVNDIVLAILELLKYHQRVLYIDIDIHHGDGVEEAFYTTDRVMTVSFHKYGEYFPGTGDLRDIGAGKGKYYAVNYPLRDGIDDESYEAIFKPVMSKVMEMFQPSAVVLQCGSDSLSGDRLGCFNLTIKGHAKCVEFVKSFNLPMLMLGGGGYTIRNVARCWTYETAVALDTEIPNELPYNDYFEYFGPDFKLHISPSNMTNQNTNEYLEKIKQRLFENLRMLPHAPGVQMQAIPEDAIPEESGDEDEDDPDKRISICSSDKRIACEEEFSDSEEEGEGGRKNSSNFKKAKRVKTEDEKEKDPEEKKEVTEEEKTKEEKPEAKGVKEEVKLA

IC50 [2, 3] [nM]	Structure (SMILES)	MEL Diff % B+ [1] [%]	MEL Diff Cells/ml × 10^−5 [1]	other results
50	O=C(CCCCC[C@H](NC(=O)c1cccnc1)C(=O)Nc1ccccc1)NO (stereo in doubt) [Compound 2, N-Nicotinoyl-(L)-α-aminosuberoylanilide-ω-hydroxamic acid]	27	–	–
50	O=C(CCCCC[C@H](NC(=O)c1cccs1)C(=O)Nc1ccccc1)NO [Compound 665]	24	30 Cells/ml × 10^−5	–
100	O=C(CCCCCC(C(=O)Nc1ccccc1)C(=O)Nc1ccccc1)NO [Compound 666]	31	28 Cells/ml × 10^−5	–

The remaining lines, values behind:

Structure (SMILES)	IC50 [2, 3] [nM]	MEL Diff % B+ [1] [%]	MEL Diff Cells/ml × 10^−5 [1]	other results
O=C(CCCCC[C@H](NC(=O)c1ccccc1)C(=O)Nc1ccccc1)NO [Compound 1, N-Benzoyl-(L)-α-aminosuberoylanilide-ω-hydroxamic acid]	–	44	9 Cells/ml × 10^−5	concentration able to induce MEL cell differentiation [1]: 200 nM; MEL Differentiation % B+ [1]: 44%; MEL Differentiation Opt. [1]: 200 nM; IC50 [2, 4]: 1 nM
O=C(CCCCC[C@H](NC(=O)c1cccnc1)C(=O)Nc1ccccc1)NO [Compound 2, N-Nicotinoyl-(L)-α-aminosuberoylanilide-ω-hydroxamic acid]	–	–	–	concentration able to induce MEL cell differentiation [1]: 800 nM; MEL Differentiation % B+ [1]: 27%; MEL Differentiation Opt. [1]: 800 nM
O=C(CCCCCC(NC(=O)OCc1ccccc1)C(=O)Nc1ccccc1)NO (stereo not drawn) [Compound 3, N-benzyloxycarbonyl-(L)-α-aminosuberateanilide-ω-hydroxamic acid]	100	16	3.3 Cells/ml × 10^−5	–
O=C(CCCCC[C@H](NC(=O)OCc1ccccc1)C(=O)Nc1ccccc1)NO [Compound 3, N-benzyloxycarbonyl-(L)-α-aminosuberateanilide-ω-hydroxamic acid]	–	–	–	concentration able to induce MEL cell differentiation [1]: 400 nM; MEL Differentiation % B+ [1]: 16%; MEL Differentiation Opt. [1]: 400 nM; IC50 [2, 4]: 100 nM
O=C(/C=C/c1cccc(C(C(=O)Nc2ccccc2)C(=O)Nc2ccccc2)c1)NO [Compound 77, 3-(malonyldi(phenylamide)) cinnamyl hydroxamic acid]	–	9	9.0 Cells/ml × 10^−5	–
O=C(O)CCCCC[C@@H](NC(=O)c1ccccc1)C(=O)Nc1ccccc1 [Compound 656]	–	0	–	IC50 [2, 5]: > 100000 nM
O=C(O)CCCCC[C@@H](NC(=O)c1cccnc1)C(=O)Nc1ccccc1 [Compound 657]	–	0	–	IC50 [2, 5]: > 100000 nM
O=C(O)CCCCCC(NC(=O)OCc1ccccc1)C(=O)Nc1cccc2cccnc12 (stereo not drawn) [Compound 659]	–	0	–	IC50 [2, 6]: 10000 nM
O=C(CCCCC[C@@H](NC(=O)c1ccccc1)C(=O)Nc1cccc2cccnc12)NO [Compound 661]	20	7	–	–
CS(=O)(=O)NCCCCCC(=O)Nc1ccccc1 [Compound 662]	–	0	–	IC50 [2, 6]: > 100000 nM
O=C(CCCCC[C@@H](NC(=O)c1ccccc1)NC(=O)C1CCCCC1)NO [Compound 663]	100	43	7 Cells/ml × 10^−5	–
O=C(CCCCC[C@H](NC(=O)c1cnc2ccccc2c1)C(=O)Nc1ccccc1)NO [Compound 664]	50	33	22 Cells/ml × 10^−5	–
O=C(CCCCCC(C(=O)Nc1cccc2cccnc12)C(=O)Nc1cccc2cccnc12)NO [Compound 667]	50	27	2 Cells/ml × 10^−5	–
O=C(CCCCCCC(=O)Nc1cccc2cccnc12)NO [Compound 668]	100	11	4.7 Cells/ml × 10^−5	–
O=C(Nc1ccccc1)C(CCCCCC(=O)C(F)(F)F)C(=O)Nc1ccccc1 [Compound 669]	–	11	16.0 Cells/ml × 10^−5	IC50 [2, 6]: 10000 nM
O=C(CCCCCCC(=O)C(F)(F)F)Nc1ccccc1 [Compound 670]	–	–	13.0 Cells/ml × 10^−5	–
CN(C)c1cccc2cc(S(=O)(=O)NCCCCCC(=O)NO)ccc12 [Compound 671]	200	35	12.5 Cells/ml × 10^−5	–
COP(=O)(NCCCCCC(=O)Nc1ccccc1)OC [Compound 673]	–	0	No inh	–

Structure (SMILES)	IC50 [2, 3] [nM]	MEL Diff % B+ [1] [%]	MEL Diff Cells/ml × 10^−5 [1]	other results
OC(c1ncc[nH]1)(c1ncc[nH]1)c1nc(CCCCCc2cnc(C(O)(c3ncc[nH]3)c3ncc[nH]3)[nH]2)c[nH]1 [Compound 674]	–	0	Dead at 25 μM	IC50 [2, 6]: 50000 nM
CC(=O)SCCCCCC(=O)Nc1ccccc1 [Compound 675]	–	0	No inh	IC50 [2, 6]: > 100000 nM
O=C(CCCCCBr)Nc1ccccc1 [Compound 676]	–	0	No inh	–
O=C(CCCCCC(C(=O)Nc1cnc2ccccc2c1)C(=O)Nc1cnc2ccccc2c1)NO [Compound 677]	5	23	4.5 Cells/ml × 10^−5	–
NS(=O)(=O)CCCCCC(=O)Nc1ccccc1 [Compound 678]	–	0	No inh	IC50 [2, 6]: > 100000 nM
O=C(CCCCCn1ccnc1)Nc1ccccc1 [Compound 679]	–	0	No inh	IC50 [2, 6]: > 100000 nM
CC(=O)SCCCCCCCC(=O)Nc1ccccc1 [Compound 680]	–	–	–	IC50 [2, 6]: > 100000 nM
O=C(CCCCCC(C(=O)Nc1cccc2cccnc12)(C(=O)Nc1cccc2cccnc12)c1ccccc1)NO [Compound 681]	200	3	2.5 Cells/ml × 10^−5	–
O=C(CCCCCC(C(=O)Nc1ccccc1)(C(=O)Nc1ccccc1)c1ccccc1)NO [Compound 682]	150	8	1.1 Cells/ml × 10^−5	–
O=C(CCCCCCn1ccnc1)Nc1ccccc1 [Compound 684]	–	0	No inh	–
O=C(CCCCCC(CCCCCC(=O)NO)(C(=O)Nc1cccc2cccnc12)C(=O)Nc1cccc2cccnc12)NO [Compound 685]	150	20	1.0 Cells/ml × 10^−5	–
NS(=O)(=O)CCCCCCC(=O)Nc1ccccc1 [Compound 686]	–	0	No inh	–
O=C(/C=C/c1cccc(C(=O)Nc2ccccc2)c1)NO [Compound 687]	–	0	No inh	IC50 [2, 6]: 200000 nM
O=C(CCCCCCC(=O)Nc1cc[nH]n1)Nc1ccccc1 [Compound 688]	–	0	No inh	IC50 [2, 6]: > 100000 nM
O=C(/C=C/c1cccc(CC(=O)Nc2ccccc2)c1)NO [Compound 689]	200	48	–	–
O=C(/C=C/c1cccc(C(C(=O)Nc2cccc3cccnc23)C(=O)Nc2cccc3cccnc23)c1)NO [Compound 690]	150	38	–	–
O=C(CCCCCC(C(=O)Nc1ccc2ncccc2c1)C(=O)Nc1ccc2ncccc2c1)NO [Compound 692]	–	27	–	–
